Results on three molecules are retold here after patent US20210338820A1, “PHARMACEUTICAL COMPOSITION COMPRISING ANTIEMETIC COMPOUNDS AND POLYORTHOESTER” (Heron Therapeutics, Inc., priority 2012, published 2021).

SMILES strings stand for the structures.

Series [1] in a line: In-vitro release of formulation of fosaprepitant and granisetron (Example 6 formulation). Type of series: physicochemical. As to conditions: 37° C.; for active agent released from the formulation: Example 6 formulation, PBS; for in vitro release proceeded in a linear fashion up to: Example 6 semi-solid polyorthoester formulation, phosphate buffered saline, HPLC, FIG. 1. The text has this: In a fifth embodiment, a formulation as described in Example 6 was weighed into vials and filled with a phosphate buffered saline solution.
A formulation as described in Example 6 was weighed into vials and filled with a phosphate buffered saline solution.

Series [2] is described as follows: In-vitro release of formulation of aprepitant and granisetron (Example 1 formulation). Type of series: physicochemical. As to conditions: 37° C.; for active agent released from the formulation: Example 1 formulation, PBS + 2% CTAB; for in vitro release proceeded in a linear fashion up to: Example 1 semi-solid polyorthoester formulation, phosphate buffered saline + 2% CTAB, HPLC, FIG. 3. As for the experimental part: In a first embodiment, 375 mg of aprepitant was dissolved in 1.3 g of a polyorthoester-compatible liquid excipient, dimethyl sulfoxide, and heated until completely dissolved. […] In a further embodiment, the formulation was weighed into vials and filled with a phosphate buffered saline solution and 2% CTAB (cetrimonium bromide). The vials were then stored at 37° C. Aliquots were taken daily and analyzed by HPLC to monitor for the release of granisetron and aprepitant from the formulation.
A formulation as described in Example 1 was weighed into vials and filled with a phosphate buffered saline solution and 2% CTAB (cetrimonium bromide). The vials were then stored at 37° C. Aliquots were taken daily and analyzed by HPLC to monitor for the release of granisetron and aprepitant from the formulation.

For series [3] the following is noted: dog, in vivo, sc.
Method: The syringes were stored at 2-8 C and brought to room temperature 1 hour before administration. Each dog received a single subcutaneous injection of the entire contents of 1 syringe (0.5 gm) over the dorsal lumbar muscle on Day 1. Blood was drawn from all dogs at the following time points: T=0, (immediately prior to drug administration), 1, 6, 12, 24, 48, 72, 96, 120, 144, and 168 hours post administration.
The nature of series [4]: In vitro release of a formulation containing aprepitant (Example 3 formulation). As to conditions: Example 3 semi-solid polyorthoester formulation; PBS + 2% CTAB, 37° C., HPLC, FIG. 4. The class given is physicochemical.
Method: In a further embodiment, the formulation was weighed into vials and filled with a phosphate buffered saline solution and 2% CTAB. The vials were then stored at 37° C. and analyzed by HPLC to monitor for the release of aprepitant from the formulation (see FIG. 4).
A formulation as described in Example 3 was weighed into vials and filled with a phosphate buffered saline solution and 2% CTAB. The vials were then stored at 37° C. and analyzed by HPLC to monitor for the release of aprepitant from the formulation.

Turning to `CN1C2CCCC1CC(NC(=O)c1nn(C)c3ccccc13)C2` (centres unmarked) [granisetron], the “active agent released from the formulation” value (from here on “active agent released”) in series [1] (after about 60 hours) is “about 80%”; in series [1] (at about 45 hours), “about 25%”; in series [1] (at about 100 hours), “Nearly all”; in series [2] (at about 48 hours), “about 65%”; in series [2] (at about 144 hours), “about 90%”. Moreover, the “in vitro release proceeded in a linear fashion up to” value (“in vitro release proceeded” below) in series [1] is “about 45 hours”; in series [2], “about 48 hours”.

Consider `C[C@@H](O[C@H]1OCCN(Cc2n[nH]c(=O)[nH]2)[C@H]1c1ccc(F)cc1)c1cc(C(F)(F)F)cc(C(F)(F)F)c1` [aprepitant], for which, in series [3], the “bioavailability (areas under the curves)” value is “good bioavailability”. In addition, the “active agent released” value in series [1] (at about 100 hours) was “about 65%”; in series [2] (after about 120 hours) it was “about 90%”; in series [2] (at about 48 hours), “about 65%”; in series [2] (at about 144 hours) it was “Essentially all”. Also, the “in vitro release proceeded” value in series [4] is listed as “about 72 hours”; in series [2], “about 48 hours”.

Consider `C[C@@H](O[C@H]1OCCN(Cc2nc(O)n(P(=O)(O)O)n2)[C@H]1c1ccc(F)cc1)c1cc(C(F)(F)F)cc(C(F)(F)F)c1` [fosaprepitant], for which the “active agent released” value was “about 60%” in series [1] (after about 60 hours) and “about 25%” in series [1] (at about 45 hours). For the same molecule, the “in vitro release proceeded” value in series [1] is “about 45 hours”.
